Patent US8236844B2, “Histidine derivatives” (Nippon Zoki Pharmaceutical Co., Ltd., priority 2006, dated 2012)

Key:
[1] = tested on: Chung model rat; assay: Test for analgesic effect (2)/(3): Chung model rat, von Frey allodynia measurement; format: in vivo, rat (Wistar strain); details: for 50% reaction threshold value, Test substance administration group, Before admin.: baseline before intraperitoneal 400 μg/kg; for 50% reaction threshold value, Test substance administration group, After admin. for 30 minutes: intraperitoneal 400 μg/kg single dose, * P<0.05 Dunnett
Description: A test for analgesic effect was conducted using a Chung model rat which is a neuropathic pain model. As to the test animal, male rats of Wistar strain of nine weeks age were used and model rats were prepared in accordance with the method of Kim and Chung (Pain, vol. 50, pages 355 to 363, 1992). Thus, under anesthetization with pentobarbital (40 mg/kg, intraperitoneal administration), rat L5 spinal nerve was exposed and L5 dorsal root ganglion periphery side was strongly ligated using 5-0 silk yarn. The animals were placed in a transparent acrylate cage whose bottom was made of wire net, a 50% reaction threshold value was calculated by an up-down method using a von Frey filament (manufactured by North Coast Medical Inc.) according to the methods of Chaplan, et al. (J. Neurosci. Method, vol. 53, pages 55 to 63, 1994) and by Lee, et al. (J. Neurophysiol., vol. 81, pages 2226 to 2233, 1999) and measurement of allodynia was conducted. Before injury of spinal nerve, the 50% reaction threshold value was measured twice and the animals where the threshold value was outside the standard were excluded from the operation for spinal nerve injury. […] After 30 minutes from the administration of the test substance, allodynia was measured to calculate a 50% reaction threshold value. With regard to a significance test, Paired t-test was conducted for comparison between before and after the nerve injury and Dunnett's multiple comparison test was used for comparison among multiple groups of the nerve injury control group and the test substance administration group. […] After 30 minutes from administration of the test substance, measurement of allodynia was conducted to calculate the 50% reaction threshold value.

[2] = tested on: mice; assay: Test for analgesic effect (4): acetic acid writhing test; format: in vivo, mouse (ddY strain); details: writhing numbers during 10 minutes
Description: The compounds of the present invention were orally administered to mice and a test for an analgesic effect was carried out by means of an acetic acid writhing test. As to the test animals, male mice of ddY strain of four weeks age were subjected to a preliminary breeding and they were used where one group comprised ten mice. Each of the compound of the present invention as a test substance was orally administered (10 mg/kg, 100 mg/kg) in a single dose while, to a control group, distilled water (water for injection) was administered similarly. After 25 minutes from the administration of the test substance, a 0.7% acetic acid/physiological saline was intraperitoneally administered at the dose of 10 mL/kg. From 5 minutes thereafter, writhing numbers during 10 minutes were counted and a suppressive rate for each mouse was calculated according to the following formula. Suppressive Rate(%)=[(Mean writhing numbers of the control group)−(Writhing numbers of each mouse)]÷[Mean writhing numbers of the control group]×100

[3] = tested on: SART stressed mouse; assay: Test for analgesic effect (1): SART stressed mouse, modified Randall-Selitto tail pressure method; format: in vivo, mouse (ddY strain); details: oral administration, peak after 30 minutes
[4] = tested on: mice; assay: Single dose toxicity test by intraperitoneal administration to mice; format: in vivo, mouse (ddY strain); details: intraperitoneal 250, 500 and 1,000 mg/kg
Description: A single dose toxicity test by intraperitoneal administration of the compounds of the present invention to mice was carried out. Male mice of ddY strain of four weeks age were made into groups of five mice so as to make mean body weight in each group nearly the same. The Compound 1 of the present invention as a test substance was intraperitoneally administered at the doses of 250 mg/kg, 500 mg/kg and 1,000 mg/kg.

[5] = tested on: rats; assay: Hyperalgesia in osteoarthritis model induced by monoiodoacetic acid into joints of rats; format: in vivo, rat; details: oral administration of 1 mg/kg
[6] = tested on: SART stressed mouse; assay: Test for analgesic effect (1): SART stressed mouse, modified Randall-Selitto tail pressure method; format: in vivo, mouse (ddY strain)
Description: Loading of SART (Specific Alternation of Rhythm in Temperature) stress or repetitive cold stress was conducted in accordance with a method of Kita, et al. (Nippon Yakurigaku Zasshi, Vol. 71, pages 195 to 210, 1975). In a constant-temperature vessel for breeding, a breeding environment temperature for male mice of ddY strain was alternately changed at 4° C. and 24° C. every one hour from 10 a.m. until 5 p.m. and kept at 4° C. from 5 p.m. to 10 a.m. of the next morning. Breeding was conducted for 5 days where water and feed were freely taken by the mice so as to load a repetitive cold stress and, after that, the mice were subjected to the test. Before and after 30 minutes from administration of the test substance, analgesic threshold value was measured by a modified Randall-Selitto method (Tail pressure method; Nippon Yakurigaku Zasshi, Vol. 72, pages 573 to 584, 1976). Thus, Using a Randall-Selitto analgesic effect measuring device where a pressing piece was modified for mouse tail, a pressure stimulation was applied at the rate of 16 g/second to the site which was 1.5 cm to the front end from tail root of the mouse and pressurized weight (g) showing an escaping or squeaking reaction was measured and adopted as a pain threshold value. […] A value (analgesic coefficient) where the pain threshold of the test substance administration group was divided by the pain threshold of the SART control group was calculated and the analgesic effect of the test substance was confirmed. Thus, when the test substance had no effect at all, said value was 1.0 and, as the effect became stronger, the value of the analgesic coefficient increased as 1.1, 1.2 and 1.3. Significant difference between the two groups was determined by a statistic processing of the pain threshold values and the analgesic coefficient was calculated as a mean value of the pain threshold values.
As to the test animals, male mice of ddY strain of four weeks age (one group comprised ten mice) were used. The compound of the present invention as a test substance was administered at a dose of 25 ng or 50 ng per mouse into the lateral ventricle whereupon its analgesic effect was measured.
Further, when the Compound 1 of the present invention was intraperitoneally administered (100 μg/kg), the pain threshold value in the SART control group was […] while, in the test substance administration group, it was 97.8 g (analgesic coefficient: 1.24) whereby a significant improving effect for hyperalgesia was noted.

[7] = tested on: rats; assay: Formalin pain test for rats, second phase; format: in vivo, rat; details: oral administration of 100 mg/kg
[8] = 25 ng per mouse into the lateral ventricle, 30 minutes after administration, pain threshold of test group / SART control group
[9] = 30 minutes after administration
[10] = 50 ng per mouse into the lateral ventricle, 30 minutes after administration, pain threshold of test group / SART control group

SMILES | Suppressive Rate ([2]; oral 10 mg/kg single dose) [%] | Suppressive Rate ([2]; oral 100 mg/kg single dose) [%] | Analgesic coefficient [6, 8] | 50% reaction threshold value, Test substance administration group, Before admin. [1] [g] | 50% reaction threshold value, Test substance administration group, After admin. for 30 minutes [1, 9] | other results
C=CC(=O)N[C@@H](Cc1cncn1C)C(=O)O [Compound 1, N(α)-acryloyl-N(π)-methyl-L-histidine] | 33.1 | 53.8 | 1.33 |  |  | 50% reaction threshold value ([1]; intraperitoneal 100 μg/kg single dose, 30 minutes after administration): 9.60 g; anti-allodynia action (in words) ([1]; oral administration 10 mg/kg, peak after 30 minutes): significant anti-allodynia action; ED50 value determined from the improving rate at the peak of the action ([1]; oral administration, peak after 30 minutes): 2.4 mg/kg; analgesic action (in words) ([3]; 3 and 10 mg/kg): significant analgesic action; ED50 value determined from the improving rate at peak of action [3]: 2.7 mg/kg; changes in the body weight compared with the control group [4]: no significant difference; abnormal observation during the observation period ([4]; 14 days): no abnormal observation was noted; death ([4]; 14 days): no death case was noted; autopsied organs and tissues observed by naked eye ([4]; after 14 days): no abnormal case was found at all; analgesic effect on hyperalgesia (in words) [5]: significant analgesic effect; Analgesic coefficient ([6]; intraperitoneal 100 μg/kg): 1.24; pain threshold value ([6]; intraperitoneal 100 μg/kg, test substance administration group): 97.8 g; analgesic action against pain reaction in the second phase (in words) [7]: significant analgesic action
C=CC(=O)N[C@@H](Cc1cncn1CC)C(=O)O [Compound 2, N(α)-acryloyl-N(π)-ethyl-L-histidine] |  | 27.6 |  | 2.69 ± 0.39 | 5.98 ± 0.52* g | Analgesic coefficient [6, 10]: 1.18
CC=CC(=O)N[C@@H](Cc1cncn1C)C(=O)O [Compound 3, N(α)-crotonoyl-N(π)-methyl-L-histidine] |  |  | 1.23 |  |  | 
CC=CC(=O)N[C@@H](Cc1cncn1CC)C(=O)O [Compound 4, N(α)-crotonoyl-N(π)-ethyl-L-histidine] | 32.9 |  |  |  |  | 
CC(C)=CC(=O)N[C@@H](Cc1cncn1C)C(=O)O [Compound 5, N(α)-3-methylcrotonoyl-N(π)-methyl-L-histidine] | 17.8 |  |  |  |  | 
Cn1cncc1C[C@H](NC(=O)C=Cc1ccccc1)C(=O)O [Compound 6, N(α)-3-phenylpropenoyl-N(π)-methyl-L-histidine] |  | 23.5 | 1.17 | 2.69 ± 0.33 | 6.43 ± 1.52* g | 
CC=C(C)C(=O)N[C@@H](Cc1cncn1C)C(=O)O [Compound 7, N(α)-2-methyl-2-butenoyl-N(π)-methyl-L-histidine] |  | 36.1 | 1.31 | 2.71 ± 0.24 | 9.88 ± 1.59* g | 
CCn1cncc1C[C@H](NC(=O)C=C(C)C)C(=O)O [Compound 9, N(α)-3-methylcrotonoyl-N(π)-ethyl-L-histidine] |  | 38.0 |  |  |  | 
CCn1cncc1C[C@H](NC(=O)C=Cc1ccccc1)C(=O)O [Compound 10, N(α)-3-phenylpropenoyl-N(π)-ethyl-L-histidine] | 27.7 |  | 1.14 |  |  | 
CC=C(C)C(=O)N[C@@H](Cc1cncn1CC)C(=O)O [Compound 11, N(α)-2-methyl-2-butenoyl-N(π)-ethyl-L-histidine] | 36.1 |  |  |  |  | 
C=CC(=O)N[C@@H](Cc1cncn1C(C)C)C(=O)O [Compound 13, N(α)-acryloyl-N(π)-isopropyl-L-histidine] |  |  |  |  |  | Analgesic coefficient [6, 10]: 1.31
Cc1ccc(C=CC(=O)N[C@@H](Cc2cncn2C)C(=O)O)cc1 [Compound 16, N(α)-3-(4-methylphenyl)acryloyl-N(π)-methyl-L-histidine] |  | 30.3 |  |  |  | 
C=CC(=O)N[C@@H](Cc1cncn1Cc1ccccc1)C(=O)O [Compound 27, N(α)-acryloyl-N(π)-benzyl-L-histidine] | 37.9 |  |  | 2.58 ± 0.26 | 7.32 ± 1.32* g | 
C=C(C)C(=O)N[C@@H](Cc1cncn1C)C(=O)O [Compound 30, N(α)-methacryl-N(π)-methyl-L-histidine] |  |  |  | 2.63 ± 0.23 | 4.30 ± 0.46* g | 
NCCC(=O)N[C@@H](Cc1cnc[nH]1)C(=O)O [carnosine, β-ananyl-L-histidine, reference compound] |  |  |  |  |  | analgesic action (in words) ([6]; administration into the lateral ventricle): no significant analgesic action
